Measurements published in PubChem BioAssay (NCI).
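Where inhibition never reached the appropriate level, the endpoint shown equals the highest concentration tested. Otherwise, values were interpolated linearly from a five-concentration, 48-hour dose response in 96-well plates. TGI is the concentration that stops growth completely.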

Columns and labels:
Assay in all cases: inhibition of tumour cell growth, NCI panel, 48 h
[1] = test system: ACHN renal
[2] = test system: BT-549 breast
[3] = test system: CCRF-CEM leukemia
[4] = test system: HL-60(TB) leukemia
[5] = test system: HS 578T breast
[6] = test system: MALME-3M melanoma
[7] = test system: MDA-N
[8] = test system: NCI-H460 lung
[9] = test system: RPMI-8226 leukemia
[10] = test system: SNB-78 CNS

Row | Compound | TGI [1] [µM] | TGI [2] [µM] | TGI [3] [µM] | TGI [4] [µM] | TGI [5] [µM] | TGI [6] [µM] | TGI [7] [µM] | TGI [8] [µM] | TGI [9] [µM] | TGI [10] [µM]
1 | NS(=O)(=O)OCCCCCCCOS(N)(=O)=O | 951 | 430 | 1140 | 469 | 1790 | 1050 | 1210 | 401 | 1330 | 2020
2 | CSC(=Nc1ccccc1)/N=C(\SCc1ccccc1)N(C)C | 2.39 | 2.86 | > 100 | > 100 | 4.17 | 2.65 | 2.03 | 0.691 | 3.57 | 4.16
3 | CC1=C(C(=O)Nc2ccc(Cl)c(C(=O)OC(C)C)c2)SCCO1 | > 100 | > 100 | 65.1 | 51 | 73.9 | 92.2 | – | 99.6 | 67.7 | > 100
4 | Cc1ccc(S(=O)(=O)N/N=C(/c2nc3ccc([N+](=O)[O-])cc3[nH]c2=O)C(O)c2ccc(C(O)/C(=N\NS(=O)(=O)c3ccc(C)cc3)c3nc4ccc([N+](=O)[O-])cc4[nH]c3=O)cc2)cc1 (stereo not given) | > 100 | – | > 100 | 98.3 | – | > 100 | – | > 100 | > 100 | > 100
5 | COc1cc(CCc2ccc(N)cc2)cc(OC)c1OC | > 100 | – | > 100 | > 92.5 | – | > 80 | – | > 100 | > 100 | 85
6 | CC(=O)C1=C(O)C2C3c4c[nH]c5cccc(c45)CC3C(C)(C)N2C1=O (stereo not given) | > 100 | – | > 100 | 9.85 | – | > 100 | – | 31.8 | > 100 | > 100
7 | CC(=O)OC1COC(n2c(=S)n(-c3ccccc3)c(=O)c3ccccc32)C(OC(C)=O)C1OC(C)=O (stereo not given) | > 100 | – | > 100 | > 100 | – | > 100 | – | > 100 | > 100 | > 100
8 | C=CCc1cc(OC)c2c(c1)C(OC)CC(c1ccc(OC)c(OC)c1)O2 (stereo not given) | > 100 | – | > 100 | > 100 | – | > 100 | – | > 100 | > 100 | > 100
9 | CC(=O)O[C@H]1CC[C@@]2(C)C(=CC[C@@H]3C2CC[C@]2(C)Nc4nc5ccccc5cc4CC32)C1 (stereo not given in full) | 16.9 | – | 14 | 17.7 | – | 21.7 | – | 17.5 | 42.1 | 21.1
10 | C[C@]12CCC3[C@@H](CC[C@@H]4c5nonc5CC[C@]34C)C1CC[C@@H]2O (stereo not given in full) | 66.3 | – | 54.8 | 43.9 | – | 69.3 | – | 71.7 | 38.9 | > 100
11 | CC(C)(C)C(C#N)(C#N)c1ccc(C(C#N)(C#N)C(C)(C)C)nn1 | > 100 | – | > 100 | > 100 | – | > 100 | – | > 100 | > 100 | > 100
